Molecules are shown by their SMILES.

In the assay the target is Serine/threonine-protein kinase B-raf [V600E] (Homo sapiens, UniProt P15056, V600E). The assay can be described thus: Kinase Activity Assay.
Chain of Serine/threonine-protein kinase B-raf [V600E] (P15056 2-766 V600E limits assumed): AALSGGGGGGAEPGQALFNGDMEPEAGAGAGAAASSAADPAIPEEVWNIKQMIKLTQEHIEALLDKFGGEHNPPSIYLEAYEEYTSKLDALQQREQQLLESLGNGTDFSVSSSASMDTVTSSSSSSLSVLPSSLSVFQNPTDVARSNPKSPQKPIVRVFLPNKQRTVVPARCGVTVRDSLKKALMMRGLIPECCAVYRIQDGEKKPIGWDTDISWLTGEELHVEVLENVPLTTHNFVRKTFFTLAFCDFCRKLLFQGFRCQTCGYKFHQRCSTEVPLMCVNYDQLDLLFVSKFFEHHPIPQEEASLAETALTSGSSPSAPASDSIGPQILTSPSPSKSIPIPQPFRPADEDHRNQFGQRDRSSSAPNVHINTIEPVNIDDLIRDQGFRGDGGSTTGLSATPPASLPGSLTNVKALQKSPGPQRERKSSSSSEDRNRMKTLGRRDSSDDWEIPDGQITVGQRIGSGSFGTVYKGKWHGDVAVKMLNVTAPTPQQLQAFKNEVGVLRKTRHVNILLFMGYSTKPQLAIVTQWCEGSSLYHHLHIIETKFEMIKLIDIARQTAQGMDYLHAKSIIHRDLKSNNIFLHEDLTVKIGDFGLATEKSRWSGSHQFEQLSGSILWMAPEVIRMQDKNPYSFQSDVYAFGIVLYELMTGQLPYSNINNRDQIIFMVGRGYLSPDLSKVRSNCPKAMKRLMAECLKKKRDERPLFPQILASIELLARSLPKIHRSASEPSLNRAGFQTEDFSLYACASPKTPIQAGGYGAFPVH

Protocol: BRAF kinase assays were performed using the Z′-LYTE™ enzymatic assay (Invitrogen, USA). […] Titrations were performed using a 1:3 dilution. Assays were performed using Select Screen (Invitrogen).

Regarding `COC(=O)N1CCN(CCNCc2ccc(NC(=O)c3ccc(C)c(C#Cc4cnc5cccnn45)c3)cc2C(F)(F)F)CC1` [US12440494, Compound 2], the IC50 was 17.8 nM.

One may read the IC50 as the midpoint of a concentration-inhibition curve.

These data come from BindingDB's records for patent US12440494 (Albert Einstein College of Medicine, 2025).
